“And” between values parts separate entries of the source, which are not always exact repeats. Equal entries are not always repeated.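 Where inhibition never reached the appropriate level, the endpoint shown equals the highest concentration tested. Otherwise, values were interpolated linearly from a five-concentration, 48-hour dose response in 96-well plates. GI50: concentration for 50% inhibition of growth. TGI is the concentration that stops growth completely.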
Columns and labels:
Assay in all cases: NCI anticancer screen, dose series, 48 h
DU-145 prostate = system: DU-145 prostate
HCC-2998 colon = system: HCC-2998 colon
HCT-15 colon = system: HCT-15 colon
IGROV1 ovarian = system: IGROV1 ovarian
KM12 colon = system: KM12 colon
MOLT-4 leukemia = system: MOLT-4 leukemia
NCI-H226 lung = system: NCI-H226 lung
OVCAR-4 ovarian = system: OVCAR-4 ovarian
SK-OV-3 ovarian = system: SK-OV-3 ovarian
U251 CNS = system: U251 CNS

COc1cc(/C=C/C(=O)NC[C@]2(O)CCC3C4CCc5cc(O)ccc5C4CCC32C)ccc1O (stereo partly drawn)
GI50 (DU-145 prostate): 23.9 µM | TGI (DU-145 prostate): > 100 µM | GI50 (HCC-2998 colon): 8.62 µM | TGI (HCC-2998 colon): 32.4 µM | GI50 (HCT-15 colon): 7.41 µM | TGI (HCT-15 colon): > 100 µM | GI50 (IGROV1 ovarian): 10.9 µM | TGI (IGROV1 ovarian): 62.7 µM | GI50 (KM12 colon): 5.68 µM | TGI (KM12 colon): 36 µM | GI50 (MOLT-4 leukemia): 3.9 µM | TGI (MOLT-4 leukemia): 32.7 µM | GI50 (NCI-H226 lung): 35.1 µM | TGI (NCI-H226 lung): > 100 µM | GI50 (OVCAR-4 ovarian): 7.49 µM | TGI (OVCAR-4 ovarian): > 100 µM | GI50 (SK-OV-3 ovarian): 82.6 µM | TGI (SK-OV-3 ovarian): > 100 µM | GI50 (U251 CNS): 8.47 µM | TGI (U251 CNS): > 100 µM

COc1ccc2[nH]c3c(C)c4cc[n+](C)cc4c(C)c3c2c1
GI50 (DU-145 prostate): 2.1 µM and 0.44 µM and 0.691 µM | TGI (DU-145 prostate): 37.7 µM and 5.13 µM | GI50 (HCC-2998 colon): 2.41 µM and 1.02 µM | TGI (HCT-15 colon): > 100 µM and 110 µM and > 250 µM | GI50 (IGROV1 ovarian): 1.01 µM and 1.13 µM | GI50 (KM12 colon): 0.34 µM and 0.817 µM | GI50 (MOLT-4 leukemia): 653 nM [middle of 4 runs] | GI50 (NCI-H226 lung): 0.111 µM | TGI (NCI-H226 lung): 1.52 µM and 1.13 µM and 0.572 µM | GI50 (OVCAR-4 ovarian): 2.18 µM | TGI (OVCAR-4 ovarian): 15.9 µM [middle of 4 runs] | GI50 (SK-OV-3 ovarian): 4.31 µM and 1.57 µM | GI50 (U251 CNS): 0.0689 µM and 0.0524 µM

O=C(Nc1ccc(Cl)cc1F)c1cc(F)ccc1O
GI50 (DU-145 prostate): 1.24 µM | TGI (DU-145 prostate): > 46.3 µM | GI50 (HCC-2998 colon): 2.64 µM | TGI (HCC-2998 colon): 8.1 µM | GI50 (HCT-15 colon): 1.46 µM | TGI (HCT-15 colon): 9.62 µM | GI50 (IGROV1 ovarian): 0.597 µM | TGI (IGROV1 ovarian): 17.2 µM | GI50 (KM12 colon): 2.03 µM | TGI (KM12 colon): 5.56 µM | GI50 (MOLT-4 leukemia): 1.9 µM | TGI (MOLT-4 leukemia): 4.77 µM | GI50 (NCI-H226 lung): 1.02 µM | TGI (NCI-H226 lung): 5.49 µM | GI50 (OVCAR-4 ovarian): 0.941 µM | TGI (OVCAR-4 ovarian): > 29.6 µM | GI50 (SK-OV-3 ovarian): 1.25 µM | TGI (SK-OV-3 ovarian): 10.4 µM | GI50 (U251 CNS): 0.832 µM | TGI (U251 CNS): > 38.8 µM

C[n+]1c2cc(N)ccc2cc2ccc(N)cc21 (tested in a mixture with another compound)
GI50 (DU-145 prostate): 0.584 µM | TGI (DU-145 prostate): 4.88 µM | GI50 (HCC-2998 colon): 0.221 µM | TGI (HCC-2998 colon): 1.44 µM | GI50 (HCT-15 colon): 0.512 µM | TGI (HCT-15 colon): 4.71 µM | GI50 (IGROV1 ovarian): 0.14 µM | TGI (IGROV1 ovarian): 1.48 µM | GI50 (KM12 colon): 0.21 µM | TGI (KM12 colon): 1.37 µM | GI50 (MOLT-4 leukemia): 0.209 µM | TGI (MOLT-4 leukemia): 0.746 µM | GI50 (NCI-H226 lung): 0.291 µM | TGI (NCI-H226 lung): 1.79 µM | GI50 (OVCAR-4 ovarian): 0.646 µM | TGI (OVCAR-4 ovarian): 2.68 µM | GI50 (SK-OV-3 ovarian): 1.35 µM | TGI (SK-OV-3 ovarian): 6.15 µM | GI50 (U251 CNS): 0.448 µM | TGI (U251 CNS): 3.65 µM

CC(C)[C@](O)(C(=O)OCC1=CC[N+]2([O-])CC[C@@H](O)[C@@H]12)[C@H](C)O (stereo partly drawn)
TGI (DU-145 prostate): > 10000 µM | TGI (HCC-2998 colon): > 10000 µM | TGI (HCT-15 colon): > 10000 µM | TGI (IGROV1 ovarian): > 10000 µM | TGI (KM12 colon): > 10000 µM | TGI (MOLT-4 leukemia): > 10000 µM | TGI (NCI-H226 lung): > 10000 µM | TGI (OVCAR-4 ovarian): > 10000 µM | TGI (SK-OV-3 ovarian): > 10000 µM | TGI (U251 CNS): > 10000 µM

COc1ccc2[nH]c(-c3ccccc3)c(C=C(C#N)C#N)c2c1
GI50 (DU-145 prostate): 6.52 µM | TGI (DU-145 prostate): > 100 µM | GI50 (HCC-2998 colon): 6.08 µM | TGI (HCC-2998 colon): > 100 µM | GI50 (HCT-15 colon): 3.23 µM | TGI (HCT-15 colon): > 100 µM | GI50 (IGROV1 ovarian): 8.35 µM | TGI (IGROV1 ovarian): > 100 µM | GI50 (KM12 colon): 3.45 µM | TGI (KM12 colon): > 100 µM | GI50 (MOLT-4 leukemia): 3.74 µM | TGI (MOLT-4 leukemia): > 100 µM | GI50 (NCI-H226 lung): 3.51 µM | TGI (NCI-H226 lung): 57.6 µM | GI50 (OVCAR-4 ovarian): 5.36 µM | TGI (OVCAR-4 ovarian): > 100 µM | GI50 (SK-OV-3 ovarian): 4.82 µM | TGI (SK-OV-3 ovarian): 35.8 µM | GI50 (U251 CNS): 3.53 µM | TGI (U251 CNS): 25.5 µM

C=CC(=O)NCCOc1cccc(Nc2cc(NCCCNC(=O)C3CCC3)c(Br)cn2)c1
GI50 (DU-145 prostate): 1.21 µM | TGI (DU-145 prostate): > 25 µM | GI50 (HCC-2998 colon): 2.49 µM | TGI (HCC-2998 colon): 7.59 µM | GI50 (HCT-15 colon): 1.38 µM | TGI (HCT-15 colon): 23.3 µM | GI50 (IGROV1 ovarian): 0.963 µM | TGI (IGROV1 ovarian): 12.9 µM | GI50 (KM12 colon): 0.954 µM | TGI (KM12 colon): > 25 µM | GI50 (MOLT-4 leukemia): 1.37 µM | TGI (MOLT-4 leukemia): > 25 µM | GI50 (NCI-H226 lung): 0.613 µM | TGI (NCI-H226 lung): > 25 µM | GI50 (OVCAR-4 ovarian): 1.26 µM | TGI (OVCAR-4 ovarian): 10.7 µM | GI50 (SK-OV-3 ovarian): 1 µM | TGI (SK-OV-3 ovarian): 4.06 µM | GI50 (U251 CNS): 0.851 µM | TGI (U251 CNS): 18.7 µM

From PubChem BioAssay (NCI)
